From US6528516B1, “Methods for reducing intraocular pressure using A3 adenosine receptor antagonists” (Trustees of the University of Pennsylvania, The Center for …, priority 1998, dated 2003)
Where “and” joins values, the source holds several entries; their conditions need not be identical. Identical values can stand only once.

Tested on: HCE (human ciliary epithelial) cell line, NPE cells
Assay: Cell volume (shrinkage) of NPE cells in isosmotic solution, Coulter Counter, 5 μM gramicidin
Assay type: cell-based
In short: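 HCE-derived NPE cells suspended in isosmotic bicarbonate/HEPES Ringer's (pH 7.4, 298-305 mOsm), with 5 μM gramicidin D in all solutions to remove K^+ channel contribution. Volume measured by Coulter Counter as peak of distribution, normalized to first time point; shrinkage fit to monoexponential by nonlinear least squares for v∞ and τ. Vehicle-matched controls.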

[1] = 30 nM IB-MECA, 5 μM gramicidin, FIG. 2A
[2] = FIG. 2D, 100 nM Cl-IB-MECA, IB-MECA in parallel

## CNC(=O)[C@H]1O[C@@H](n2cnc3c(NCc4cccc(I)c4)ncnc32)[C@H](O)[C@@H]1O [IB-MECA, N^6-(3-iodobenzyl)-adenosine-5′-N-methyluronamide]
[1]
  steady-state cell volume (V∞): 98.5±0.1%
  time constant of the shrinkage (τ): 3.5 ± 1.5 min
100 nM agonist
  effect of adenosine-receptor agonist on isoosmotic volume: produced shrinkage
100 nM, FIG. 5A
  steady-state cell volume (V∞): 95.6±0.2%
  time constant of the shrinkage (τ): 4.5 ± 0.6 min
1 μM IB-MECA, FIG. 2A
  steady-state cell volume (V∞): 95.9±0.3%
  time constant of the shrinkage (τ): 2.4 ± 0.7 min
1 μM IB-MECA, FIG. 2B
  steady-state cell volume (V∞): 97.5±0.1%
  time constant of the shrinkage (τ): 7.2 ± 1.0 min
3 μM IB-MECA, FIG. 2B
  steady-state cell volume (V∞): 96.7±0.3%
  time constant of the shrinkage (τ): 10.0 ± 2.3 min
10 μM IB-MECA, FIG. 2B
  steady-state cell volume (V∞): 97.9±0.2%
  time constant of the shrinkage (τ): 3.2 ± 1.1 min
[2]
  steady-state cell volume (V∞): 96.8±0.4%
  time constant of the shrinkage (τ): 6.3 ± 2.2 min
Lineweaver-Burk plot of monoexponential fits, FIG. 2C, read-out: apparent Kd for the IB-MECA-induced shrinkage
  Kd: 55 nM and ~55 nM
